Experimental data as given in PubChem BioAssay (NCI).
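Five compound concentrations were applied to cells in 96-well plates for 48 hours; endpoints were derived by simple linear interpolation of the resulting dose-response curve. GI50 marks 50% less growth. TGI denotes the concentration required for complete inhibition of growth.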

Legend:
Test in all cases: NCI-60 cell line screen, 48 h
UO-31 renal = system: UO-31 renal
SNB-75 CNS = system: SNB-75 CNS
MDA-MB-468 breast = system: MDA-MB-468 breast
IGROV1 ovarian = system: IGROV1 ovarian
SK-MEL-28 melanoma = system: SK-MEL-28 melanoma
OVCAR-8 ovarian = system: OVCAR-8 ovarian
HOP-92 NSCLC = system: HOP-92 NSCLC
HL-60(TB) leukemia = system: HL-60(TB) leukemia
BT-549 breast = system: BT-549 breast
T-47D breast = system: T-47D breast
MDA-MB-435 = system: MDA-MB-435
LOX IMVI melanoma = system: LOX IMVI melanoma
MALME-3M melanoma = system: MALME-3M melanoma
SNB-19 CNS = system: SNB-19 CNS
SF-268 CNS = system: SF-268 CNS
MCF7 breast = system: MCF7 breast
SK-OV-3 ovarian = system: SK-OV-3 ovarian
TK-10 renal = system: TK-10 renal
MDA-MB-231 breast = system: MDA-MB-231 breast
SK-MEL-5 melanoma = system: SK-MEL-5 melanoma
786-0 renal = system: 786-0 renal
UACC-62 melanoma = system: UACC-62 melanoma
CAKI-1 renal = system: CAKI-1 renal
MOLT-4 leukemia = system: MOLT-4 leukemia
SN12C renal = system: SN12C renal
SW-620 colon = system: SW-620 colon
ACHN renal = system: ACHN renal
NCI-H23 lung = system: NCI-H23 lung
NCI-H460 lung = system: NCI-H460 lung
A549 NSCLC = system: A549 NSCLC
RXF 393 renal = system: RXF 393 renal
OVCAR-3 ovarian = system: OVCAR-3 ovarian
HCT-116 colon = system: HCT-116 colon
HCT-15 colon = system: HCT-15 colon
HT29 colon = system: HT29 colon
SF-295 CNS = system: SF-295 CNS
U251 CNS = system: U251 CNS
SR leukemia = system: SR leukemia
PC-3 prostate = system: PC-3 prostate
UACC-257 melanoma = system: UACC-257 melanoma
OVCAR-5 ovarian = system: OVCAR-5 ovarian
NCI-H522 lung = system: NCI-H522 lung
OVCAR-4 ovarian = system: OVCAR-4 ovarian
A498 renal = system: A498 renal
HS 578T breast = system: HS 578T breast
DU-145 prostate = system: DU-145 prostate
NCI-H226 lung = system: NCI-H226 lung
HOP-62 NSCLC = system: HOP-62 NSCLC
EKVX NSCLC = system: EKVX NSCLC
COLO 205 colon = system: COLO 205 colon
KM12 colon = system: KM12 colon
SF-539 CNS = system: SF-539 CNS
K-562 leukemia = system: K-562 leukemia
HCC-2998 colon = system: HCC-2998 colon
RPMI-8226 leukemia = system: RPMI-8226 leukemia
M14 melanoma = system: M14 melanoma
CCRF-CEM leukemia = system: CCRF-CEM leukemia

Compound: CCCCSc1nc(NCCc2c[nH]c3ccccc23)c(C#N)c(-c2ccccc2)n1
- GI50 (UO-31 renal): 14.6 µM
- TGI (UO-31 renal): 34.3 µM
- GI50 (SNB-75 CNS): 14.1 µM
- TGI (SNB-75 CNS): 47 µM
- GI50 (MDA-MB-468 breast): 5.3 µM
- TGI (MDA-MB-468 breast): 18.8 µM
- GI50 (IGROV1 ovarian): 16 µM
- TGI (IGROV1 ovarian): 32.3 µM
- GI50 (SK-MEL-28 melanoma): 14.5 µM
- TGI (SK-MEL-28 melanoma): 29.1 µM
- GI50 (OVCAR-8 ovarian): 23.7 µM
- TGI (OVCAR-8 ovarian): > 100 µM
- GI50 (HOP-92 NSCLC): 5.54 µM
- TGI (HOP-92 NSCLC): 25.4 µM
- GI50 (HL-60(TB) leukemia): 16 µM
- TGI (HL-60(TB) leukemia): 82.5 µM
- GI50 (BT-549 breast): 12.3 µM
- TGI (BT-549 breast): 25.7 µM
- GI50 (T-47D breast): 3.78 µM
- TGI (T-47D breast): 19.4 µM
- GI50 (MDA-MB-435): 13.7 µM
- TGI (MDA-MB-435): 27.4 µM
- GI50 (LOX IMVI melanoma): 4.48 µM
- TGI (LOX IMVI melanoma): 15.5 µM
- GI50 (MALME-3M melanoma): 17.7 µM
- TGI (MALME-3M melanoma): 32.6 µM
- GI50 (SNB-19 CNS): 17.2 µM
- TGI (SNB-19 CNS): 34.6 µM
- GI50 (SF-268 CNS): 14.6 µM
- TGI (SF-268 CNS): 43.7 µM
- GI50 (MCF7 breast): 5.26 µM
- TGI (MCF7 breast): 19.7 µM
- GI50 (SK-OV-3 ovarian): 22.4 µM
- TGI (SK-OV-3 ovarian): 61.3 µM
- GI50 (TK-10 renal): 26.1 µM
- TGI (TK-10 renal): 54.7 µM
- GI50 (MDA-MB-231 breast): 11.1 µM
- TGI (MDA-MB-231 breast): 25.4 µM
- GI50 (SK-MEL-5 melanoma): 9.88 µM
- TGI (SK-MEL-5 melanoma): 21.5 µM
- GI50 (786-0 renal): 10.5 µM
- TGI (786-0 renal): 27 µM
- GI50 (UACC-62 melanoma): 13.7 µM
- TGI (UACC-62 melanoma): 26.6 µM
- GI50 (CAKI-1 renal): 5.56 µM
- TGI (CAKI-1 renal): 20.7 µM
- GI50 (MOLT-4 leukemia): 5.73 µM
- TGI (MOLT-4 leukemia): 78.8 µM
- GI50 (SN12C renal): 12.7 µM
- TGI (SN12C renal): 25.5 µM
- GI50 (SW-620 colon): 6.48 µM
- TGI (SW-620 colon): 23.3 µM
- GI50 (ACHN renal): 12.7 µM
- TGI (ACHN renal): 28.5 µM
- GI50 (NCI-H23 lung): 12.8 µM
- TGI (NCI-H23 lung): 27.9 µM
- GI50 (NCI-H460 lung): 4.2 µM
- TGI (NCI-H460 lung): 18.4 µM
- GI50 (A549 NSCLC): 22 µM
- TGI (A549 NSCLC): 82.3 µM
- GI50 (RXF 393 renal): 11.9 µM
- TGI (RXF 393 renal): 25.8 µM
- GI50 (OVCAR-3 ovarian): 14.7 µM
- TGI (OVCAR-3 ovarian): 29.1 µM
- GI50 (HCT-116 colon): 3.82 µM
- TGI (HCT-116 colon): 16.5 µM
- GI50 (HCT-15 colon): 4.44 µM
- TGI (HCT-15 colon): 16.9 µM
- GI50 (HT29 colon): 4.34 µM
- TGI (HT29 colon): 16.4 µM
- GI50 (SF-295 CNS): 13.8 µM
- TGI (SF-295 CNS): 29.8 µM
- GI50 (U251 CNS): 11.4 µM
- TGI (U251 CNS): 25.3 µM
- GI50 (SR leukemia): 4.88 µM
- TGI (SR leukemia): > 100 µM
- GI50 (PC-3 prostate): 4.42 µM
- TGI (PC-3 prostate): 37.9 µM
- GI50 (UACC-257 melanoma): 20.4 µM
- TGI (UACC-257 melanoma): 47 µM
- GI50 (OVCAR-5 ovarian): 12.6 µM
- TGI (OVCAR-5 ovarian): 26 µM
- GI50 (NCI-H522 lung): 15.5 µM
- TGI (NCI-H522 lung): 32.5 µM
- GI50 (OVCAR-4 ovarian): 11.8 µM
- TGI (OVCAR-4 ovarian): 34.8 µM
- GI50 (A498 renal): 16.2 µM
- TGI (A498 renal): 31.6 µM
- GI50 (HS 578T breast): 12.5 µM
- TGI (HS 578T breast): 61.5 µM
- GI50 (DU-145 prostate): 14.1 µM
- TGI (DU-145 prostate): 32.1 µM
- GI50 (NCI-H226 lung): 12.4 µM
- TGI (NCI-H226 lung): 27.3 µM
- GI50 (HOP-62 NSCLC): 12.8 µM
- TGI (HOP-62 NSCLC): 29.7 µM
- GI50 (EKVX NSCLC): 10 µM
- TGI (EKVX NSCLC): 32.4 µM
- GI50 (COLO 205 colon): 11.5 µM
- TGI (COLO 205 colon): 29.5 µM
- GI50 (KM12 colon): 4.59 µM
- TGI (KM12 colon): 18 µM
- GI50 (SF-539 CNS): 12.3 µM
- TGI (SF-539 CNS): 27.2 µM
- GI50 (K-562 leukemia): 4.91 µM
- TGI (K-562 leukemia): > 100 µM
- GI50 (HCC-2998 colon): 7.92 µM
- TGI (HCC-2998 colon): 21.8 µM
- GI50 (RPMI-8226 leukemia): 12.1 µM
- TGI (RPMI-8226 leukemia): > 100 µM
- GI50 (M14 melanoma): 12.3 µM
- TGI (M14 melanoma): 26.9 µM
- GI50 (CCRF-CEM leukemia): 5.38 µM
- TGI (CCRF-CEM leukemia): > 100 µM
